Laboratory results taken from patent US20220378773A1, “METHODS FOR TREATING LEUKEMIA AND USE OF A LEUKEMIC STEM CELL SIGNATURE TO PREDICT CLINICAL SENSITIVITY TO THERAPIES” (CELGENE CORPORATION, priority 2019, published 2022).
“And” between values parts separate entries of the source, which are not always exact repeats. Equal entries are not always repeated.

What was measured:
GSPT1 = target: T1, GSPT1 (Homo sapiens, UniProt P15170+Q96SW2); assay: In vitro GSPT1 degradation in primary AML cells (flow cytometry, MFI); format: cell-based
T1 construct: endogenous in cells; host or cells: primary AML patient cells (peripheral blood mononuclear cells) in short-term suspension culture
Procedure: 6.2.3.1. In Vitro Degradation of G1 to S Phase Transition Protein 1 (GSPT1) by Compound D and Apoptosis Assay
Preparation of Test Article Stock Solutions and Dilutions: Compound D was prepared in anhydrous DMSO to make a 1 M stock solution then further diluted to final concentrations of 3, 30, and 100 nM.
Cell Culture: Materials used for in vitro assays of AML cells included X-VIVO 10 medium supplemented with 15% BIT, and growth factors including 100 ng/mL of stem cell factor, 20 ng/mL of IL-6, 20 ng/mL of G-CSF, 20 ng/mL of IL-3, 100 ng/mL of Flt 3 ligand (each provided by Amgen, USA), 20 ng/mL of GM-CSF (R&D Systems, USA), and 50 ng/mL of thrombopoietin (Kirin Brewery, Japan).
Assay Procedure: After 4 and 24 hours of in vitro culture with DMSO or Compound D, cells were harvested for GSPT1 expression and apoptosis. Levels of GSPT1 were analyzed by flow cytometry using median fluorescence intensity (MFI) and normalized against DMSO controls. Apoptosis was also analyzed by flow cytometry and measured as percentage of cells which were positive for cleaved caspase 3/7.
Viably frozen primary leukemia cells were thawed and plated in suspension culture in the Iscove's Modified Dulbecco's Medium plus 15% BIT Serum Substitute (Stem Cell Technology, Canada), supplemented with multiple human growth factors. Compound D was added to the culture at indicated concentrations.
For GSPT1 expression, intracellular flow cytometry (FACS) was performed at 24 hours in culture by staining cells with GSPT1 conjugated with Alexa Fluor 647. For apoptosis, cells were harvested at 24 hours in culture and stained with Annexin V-PE and 7-aminoactinomycin D (7AAD) (BD Biosciences, USA).

[1] = test system: colony forming leukemia progenitors; assay: Acute myeloid leukemia colony forming unit (AML-CFU) assay; format: cell-based, human
Procedure: For the AML-colony forming unit (CFU) assay, 0.9% methylcellulose semi-solid culture was used, containing 15% fetal calf serum (FCS), 15% pretested human plasma, 50 μM β mercaptoethanol, and cytokines at concentrations of 100 ng/mL stem cell factor, 100 ng/mL Flt-3 ligand, 20 ng/mL IL-6, 20 ng/mL GM-CSF, 20 ng/mL IL-3, and 3 U/mL of erythropoietin (Amgen, USA).
Cell Culture: Acute myeloid leukemia cells were plated in 0.9% methylcellulose containing 15% FCS, 15% pretested human plasma, 50 μM β-mercaptoethanol, and cytokines at concentrations of 100 ng/mL stem cell factor, 100 ng/mL Flt-3 ligand, 20 ng/mL IL-6, 20 ng/mL GM-CSF, 20 ng/mL IL-3 and 3 U/mL of erythropoietin (Amgen, USA). Acute myeloid leukemia cells were cultured with DMSO or Compound D (prepared as described below) during suspension and CFU assays.
Assay Procedure: After the AML cultures were incubated with DMSO or Compound D for 12 to 14 days at 37° C., plates were assigned scores for the presence of AML-CFU (CFU defined as >50 cells).
Colony assays were performed in semisolid culture supplemented with growth factors, in the presence of Compound D, or DMSO for control. Colonies were counted at Day 14.

[2] = Tolerability and body weight of AML xenograft mice; format: in vivo, NOD/SCID mice
Procedure: Treatment and Assay Procedure: At Day 21 post AML transplantation, mice were randomly grouped and dosed with either Compound D at 2.5 mg/kg or vehicle (5% N-methyl-2-pyrrolidone [NMP]/45% polyethylene glycol [PEG] 400/50% saline), intraperitoneally twice daily in a dose volume of 50 μL for 4 weeks. All animals were euthanized at scheduled termination (1 day after the last treatment) and bone marrow was collected from the right femur (injected bone marrow) and the left femur and left and right tibia (non-injected bone marrow). Cells isolated from injected or non-injected bone marrow were analyzed by flow cytometry to assess AML engraftment, and were viably frozen for future secondary engraftment analysis.
Based on the pilot data (FIG. 4) in which one of the 2 samples responded to Compound D dosing at 2.5 mg/kg BID for 2 weeks, the duration of dosing was extended to 4 weeks to determine if the mice could tolerate longer Compound D dosing. Mice transplanted with 3 different AML samples were closely monitored for clinical conditions during treatment.

[3] = test system: AML graft (CD34, CD15, CD14, CD11b); assay: Cell surface marker phenotype of AML graft after treatment; format: in vivo, NOD/SCID mice
From the text: After treatment finished, cells were harvested from both injected right femur (RF) and non-injected bone marrow (BM, including left femur, 2 tibias), and stained with human antibodies to assess the engraftment levels of AML. Antibodies used for staining included: Mouse anti-human CD45-APC, CD15-FITC, CD34-APC7, CD38-PC7 (BD Biosciences, USA), CD14-PE, CD33-PC5 (Beckman Coulter, USA), CD19-V450, CD19-AF700, CD11b-APC7, CD34-BV421 (BD Biosciences, USA), and propidium iodide (PI; Invitrogen, USA).
With the observation that Compound D has dramatic effect against AML in mice, the question of whether Compound D targets primitive leukemic cells and induces differentiation was investigated next because AML cells are immature blasts with differentiation and maturation blockage in patients. Samples that were focused on were the samples that still had clear residual leukemia cells in the mice following Compound D treatment. […] The majority of cells harvested from the mice transplanted with patient sample 120093 were CD34+ primitive cells lacking in CD15 expression. […] CD11b is also a myeloid differentiation marker and was increased on patient 150250 grafted cells in parallel with increased expression of another myeloid differentiation marker CD15. […] The changes of CD15, CD14 and CD34 positive populations are summarized in FIGS. 12C-12E and 3 different patterns after Compound D treatment are apparent: increase, decrease, or no change of the populations in AML, graft. The samples with reduction of CD34+ primitive cells and increase of CD15+ and/or CD14+ cells are the samples responding well to Compound D (such as patient samples 110555, 110500, and 120093). […] Secondary transplantation may be performed to determine whether Compound D targeted the LSCs with self-renewal capacity.

T1 sequence (P15170 whole entry): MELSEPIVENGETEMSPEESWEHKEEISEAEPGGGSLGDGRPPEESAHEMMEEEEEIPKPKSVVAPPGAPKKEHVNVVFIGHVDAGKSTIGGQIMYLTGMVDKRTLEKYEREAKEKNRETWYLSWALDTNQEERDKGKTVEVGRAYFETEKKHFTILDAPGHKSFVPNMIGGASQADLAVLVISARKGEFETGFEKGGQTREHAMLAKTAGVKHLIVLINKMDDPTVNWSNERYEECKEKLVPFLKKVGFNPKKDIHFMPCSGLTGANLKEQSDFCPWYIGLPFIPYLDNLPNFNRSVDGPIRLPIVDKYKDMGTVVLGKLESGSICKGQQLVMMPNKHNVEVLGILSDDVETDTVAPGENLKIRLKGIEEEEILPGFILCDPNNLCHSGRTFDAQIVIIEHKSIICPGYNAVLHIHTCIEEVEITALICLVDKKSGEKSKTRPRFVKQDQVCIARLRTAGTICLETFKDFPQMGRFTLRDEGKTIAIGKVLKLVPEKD
T1 sequence (Q96SW2 whole entry): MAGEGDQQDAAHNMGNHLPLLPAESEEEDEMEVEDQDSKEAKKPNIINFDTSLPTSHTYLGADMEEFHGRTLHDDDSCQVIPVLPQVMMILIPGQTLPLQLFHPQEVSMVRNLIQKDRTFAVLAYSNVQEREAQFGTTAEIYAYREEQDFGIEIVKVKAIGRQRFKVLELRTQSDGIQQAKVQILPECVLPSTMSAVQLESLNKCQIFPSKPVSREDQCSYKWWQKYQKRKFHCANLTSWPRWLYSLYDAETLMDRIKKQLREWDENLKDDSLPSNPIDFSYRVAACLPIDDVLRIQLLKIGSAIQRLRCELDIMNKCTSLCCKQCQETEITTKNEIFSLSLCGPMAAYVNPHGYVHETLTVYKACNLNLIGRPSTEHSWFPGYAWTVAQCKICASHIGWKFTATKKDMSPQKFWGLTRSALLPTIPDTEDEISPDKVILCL
T1 sequence (Q16531 whole entry partner): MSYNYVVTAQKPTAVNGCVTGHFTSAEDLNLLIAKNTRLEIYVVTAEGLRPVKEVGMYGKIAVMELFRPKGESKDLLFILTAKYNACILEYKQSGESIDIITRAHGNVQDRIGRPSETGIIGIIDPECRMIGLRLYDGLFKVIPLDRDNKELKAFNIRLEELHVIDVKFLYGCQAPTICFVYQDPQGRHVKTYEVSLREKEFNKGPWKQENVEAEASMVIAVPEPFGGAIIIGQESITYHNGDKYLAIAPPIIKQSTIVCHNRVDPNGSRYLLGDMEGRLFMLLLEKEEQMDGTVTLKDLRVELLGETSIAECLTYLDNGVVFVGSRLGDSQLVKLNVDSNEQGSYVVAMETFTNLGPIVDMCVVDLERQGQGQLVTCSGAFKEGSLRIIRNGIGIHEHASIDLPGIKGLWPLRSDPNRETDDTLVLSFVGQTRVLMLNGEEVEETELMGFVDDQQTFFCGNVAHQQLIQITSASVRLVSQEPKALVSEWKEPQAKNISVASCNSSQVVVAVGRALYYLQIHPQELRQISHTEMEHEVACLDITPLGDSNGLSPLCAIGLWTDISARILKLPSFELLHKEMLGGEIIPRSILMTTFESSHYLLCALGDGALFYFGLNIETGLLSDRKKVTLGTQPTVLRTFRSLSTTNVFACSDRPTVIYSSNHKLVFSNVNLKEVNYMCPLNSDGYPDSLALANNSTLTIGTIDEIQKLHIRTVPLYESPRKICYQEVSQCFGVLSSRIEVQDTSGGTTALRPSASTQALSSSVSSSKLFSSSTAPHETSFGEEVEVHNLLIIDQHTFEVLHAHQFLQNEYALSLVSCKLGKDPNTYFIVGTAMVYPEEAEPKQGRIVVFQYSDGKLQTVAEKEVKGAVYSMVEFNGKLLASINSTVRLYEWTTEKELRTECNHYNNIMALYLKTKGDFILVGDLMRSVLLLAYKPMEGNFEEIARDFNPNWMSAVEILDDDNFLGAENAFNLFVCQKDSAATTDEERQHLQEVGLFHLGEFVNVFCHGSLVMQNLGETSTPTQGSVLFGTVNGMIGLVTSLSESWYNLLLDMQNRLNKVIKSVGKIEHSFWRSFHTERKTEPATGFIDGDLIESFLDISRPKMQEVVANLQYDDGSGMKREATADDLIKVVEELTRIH

O=C1CCC(N2Cc3cc(CNC(=O)C(F)(F)c4ccc(Cl)cc4)ccc3C2=O)C(=O)N1 (centres unmarked) [Compound D, 2-(4-chlorophenyl)-N-((2-(2,6-dioxopiperidin-3-yl)-1-oxoisoindolin-5-yl)methyl)-2,2-difluoroacetamide]
GSPT1 degradation, high vs low LSC17 score samples (GSPT1; 100 nM, 24 hours): samples with high LSC17 scores had significantly higher GSPT1 degradation | effect on reduction of GSPT1 levels, concentration dependence (GSPT1; 3, 30, 100 nM): concentration dependent | GSPT1 expression in AML cells (GSPT1; Section 6.3 samples, 24 hours exposure): decreased GSPT1 expression | GSPT1 levels in AML cells (GSPT1; ten primary AML patient samples, 4 and 24 hours, vs control): reduced GSPT1 levels as early as 4 hours post treatment | colony formation, high vs low LSC17 score samples ([1]; 3 high and 3 low LSC17 samples): reduced colony formation of the samples with high LSC17 scores more than the samples with low LSC17 samples | colony formation ([1]; 7 samples that formed colonies, increasing concentration): all 7 samples had reduced colony formation | colony forming leukemia progenitors ([1]; Section 6.3 samples): inhibited colony forming leukemia progenitors | tolerability ([2]; 4 weeks of treatment, mice with different primary AML samples): well tolerated | Body weight, Week 1, average (mean) ([2]; group mean): Avg = 21.8 | Body weight, Week 2, average (mean) ([2]; group mean): Avg = 21.7 | Body weight, Week 3, average (mean) ([2]; group mean): Avg = 21.6 | Body weight, Week 1 ([2]; individual mice): 21 g (5×) and 23 g (2×) and 20 g (2×) and 22 g (4×) and 24 g (2×) | Body weight, Week 2 ([2]; individual mice): 22 g (3×) and 20 g (3×) and 24 g (2×) and 23 g (3×) and 19 g and 21 g (3×) | Body weight, Week 3 ([2]; individual mice): 23 g and 21 g (4×) and 19 g and 22 g (5×) and 24 g (2×) and 20 g (2×) | paralysis / death ([2]; mouse transplanted with Patient Sample 120860, last day of 4-week treatment): Only one Compound D-treated mouse was found paralyzed | expression of myeloid differentiation marker CD15 ([3]; 3 representative samples): clear increased expression | CD11b+ leukemia cells ([3]; Patient 130826): decreased CD11b+ leukemia cells | expression of monocytic cell marker CD14 ([3]; graft of patient 120287): induced expression of monocytic cell marker CD14 | CD11b on grafted cells ([3]; patient 150250): increased | CD14+ cells ([3]; patient sample 100474): only eliminated CD14+ cells | CD15 expression ([3]; patient sample 120093): induced CD15 expression | CD34+ cell population ([3]; patient sample 120093): reduced CD34+ cell population | CD34+ cells in the graft ([3]; patient samples 100348 and 130826): reduced CD34+ cells
